Results reported in patent publication US12194080B2, “Methods for identification, assessment, prevention, and treatment of metabolic disorders using PM20D1 and N-lipidated amino acids” (Dana-Farber Cancer Institute, Inc., priority 2015, dated 2025).

Key:
[1] = Blood levels after a single i.p. dose; assay type: in vivo; conditions: C57BL/6, mouse, ip, single 30 mg/kg i.p. dose, mean±SEM, n=3
Experimental: Animal experiments were performed according to procedures approved by the Beth Israel Deaconess Medical Center IACUC. Mice were maintained in 12 h light-dark cycles at 22° C. and fed a standard irradiated rodent chow diet. All experiments on wild-type mice were performed with male C57BL/6 mice purchased from Jackson Laboratories, except for the AAV experiments, which were performed with male C57BL/6 mice from Charles River. UCP1-KO (stock #017476) and 16-20 week DIO mice (stock #380050) were obtained from Jackson Laboratories. For AAV injection experiments, mice were gently warmed using a 250 W clear infrared heat lamp, immobilized, and injected via tail vein with 10^10 virus/mouse (diluted in saline) in a total volume of 100 μl/mouse. Where indicated, mice were placed on high-fat diet (60% fat, Research Diets). For cold exposure experiments, mice were group housed and placed at 4° C. for the indicated times. For the preparation of C18:1-Phe for in vivo injections, compounds were dissolved in 18:1:1 v/v/v saline:Kolliphor® EL (Sigma Aldrich):DMSO and sonicated until homogeneous. Mice were administered compounds at 5 μl/g body weight at the indicated doses. For all injection experiments, mice were mock injected with saline daily for 3 days prior to the start of the experiments. […]

U2OS cells = experiment: Cellular oxygen consumption rate (uncoupled respiration), U2OS cells; assay type: cell-based, human; conditions: 50 μM, after oligomycin 1 μM
Experimental: C2C12, U2O5, and 293A cells were cultured in DMEM with 10% FBS and pen/strep. Primary inguinal (iWAT) and brown (BAT) adipocytes were obtained as follows. The stromal-vascular fraction of inguinal (iWAT) pad from 4-12 week old male mice was dissected, minced, and digested for 45 min. at 37° C. in PBS containing 10 mM CaCl2, 2.4 U/ml dispase II (Roche), and 1.5 U/ml collagenase D (Roche). The stromal-vascular fraction of brown fat (BAT) pads from newborn (P1-P14) pups was dissected, minced, and digested for 45 min at 37° C. in PBS containing 1.3 mM CaCl2, 120 mM NaCl, 5 mM KCl, 5 mM glucose, 100 mM HEPES, 4% BSA, and 1.5 mg/ml collagenase B (Roche). Digested tissue was diluted with adipocyte culture media (DMEM/F-12, GlutaMAX™ supplement, Life Technologies, with 10% FBS and pen/strep) and centrifuged (600×g for 10 min.). The pellet was resuspended in 10 ml adipocyte culture media, strained through a 40 μm filter, and plated. Differentiation was induced by application of an adipogenic cocktail containing 5 μg/ml insulin (Sigma), 5 μM dexamethasone (Sigma), 250 μM isobutylmethylxanthine (Sigma), and 1 μM rosiglitazone (Cayman) for 2 days. Two days after induction, cells were maintained in adipocyte culture media containing 5 μg/ml insulin and 1 μM rosiglitazone.
Cellular oxygen consumption rates were determined using an XF24 Extracellular Flux Analyzer (Seahorse Biosciences). Oligomycin was purchased from EMD Millipore, and FCCP and rotenone were purchased from Sigma. C2C12 or U2OS cells were seeded at 30,000 or 50,000 cells/well, respectively in an XF24 cell culture microplate (V7-PS, Seahorse Bioscience) and analyzed the following day. Primary iWAT or BAT adipocytes were seeded at 15,000 cells/well, differentiation was induced the following day as described, and the cells were analyzed on day 5. On the day of analysis, the cells were washed once with Seahorse respiration buffer (8.3 g/1 DMEM, 1.8 g/l NaCl, 1 mM pyruvate, 20 mM glucose, pen/strep), placed in 0.5 ml Seahorse respiration buffer, and incubated in a CO2-free incubator for 1 hr. Port injection solutions were prepared as follows (final concentrations in assay in parentheses): 10 μM oligomycin (1 μM final), […] amino acid (50 μM final), 2 μM FCCP (0.2 μM final), and 30 μM rotenone (3 μM final). The Seahorse program was run as follows: basal measurement, 3 cycles; inject port A (oligomycin), 3 cycles; inject port B (compounds), 8 cycles; inject port C (FCCP), 3 cycles; inject port D (rotenone), 3 cycles. Each cycle consisted of mix 4 min, wait 0 min, and measure 2 min. For data expressed as a percentage of oligomycin-treated basal, the respiration at cycle 6 was normalized to 100%, and the maximum respiration at any time point between cycles 7 and 15 inclusive was used.

[2] = tested on: primary inguinal fat cells, primary BAT cells, C2C12 cells, and U2OS cells; experiment: Uncoupled respiration cellular assays (variety of cell types); assay type: cell-based; conditions: N-acyl amino acids at 10-100 uM

## CCCCCCCC/C=C\CCCCCCCC(=O)N[C@@H](Cc1ccccc1)C(=O)O [C18:1-Phe, Oleoyl-L-phenylalanine]
[1]; 2 h post-injection
  concentration at 2 h: 3000 ± 300 nM
[1]; 6 h post-injection
  concentration at 6 h: 400 ± 100 nM
U2OS cells
  uncoupling activity (uncoupled respiration): possessed uncoupling activity
[2]
  uncoupled respiration in cells: increased uncoupled respiration
